{"source": "paper PMC6370589", "about": "(ChemMedChem, 2018)", "key": {"recombinant PLK1 kinase": {"target": "recombinant PLK1 kinase (Homo sapiens, UniProt P53350)", "sequence (P53350 whole entry)": "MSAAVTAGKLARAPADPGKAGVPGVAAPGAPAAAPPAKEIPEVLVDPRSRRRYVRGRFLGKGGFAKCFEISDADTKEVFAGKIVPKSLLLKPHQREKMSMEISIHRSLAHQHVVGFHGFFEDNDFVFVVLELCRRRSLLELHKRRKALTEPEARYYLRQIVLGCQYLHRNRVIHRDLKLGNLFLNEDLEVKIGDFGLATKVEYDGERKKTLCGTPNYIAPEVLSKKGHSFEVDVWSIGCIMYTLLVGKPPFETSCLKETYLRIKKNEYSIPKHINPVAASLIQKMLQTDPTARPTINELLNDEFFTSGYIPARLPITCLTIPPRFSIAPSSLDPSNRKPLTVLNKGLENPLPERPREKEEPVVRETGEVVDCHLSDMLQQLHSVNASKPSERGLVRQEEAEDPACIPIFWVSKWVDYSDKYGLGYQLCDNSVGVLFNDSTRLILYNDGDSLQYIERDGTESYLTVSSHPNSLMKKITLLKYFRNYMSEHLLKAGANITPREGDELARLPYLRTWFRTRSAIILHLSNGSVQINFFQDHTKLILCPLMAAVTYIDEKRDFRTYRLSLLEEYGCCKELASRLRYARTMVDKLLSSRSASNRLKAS", "assay": "PLK1 recombinant kinase LANCE TR-FRET assay", "assay_type": "biochemical"}, "[1]": {"tested_on": "advanced refractory solid tumors", "conditions": "Phase I, single agent; cited from earlier work"}, "[2]": {"tested_on": "phosphorylated CDK1 at Tyr15", "assay": "pCDK1", "assay_type": "cell-based", "conditions": "Daoy, 24 h; for change in pCDK1(Tyr15) level vs DMSO control: 220 nM, n=3; for pCDK1 ELISA dose-response: 1 μM to 62 nM, EC50 values not determinable"}, "8 other kinases": {"tested_on": "8 other kinases", "conditions": "1.0 μM, profile of 223 kinases; cited from earlier work"}, "[3]": {"tested_on": "phosphorylated CDK1 at Tyr15", "conditions": "read-out: pCDK1 ELISA EC50; Daoy; previously determined; cited from earlier work"}, "in vitro": {"assay": "in vitro", "conditions": "human"}, "Daoy cells [4]": {"tested_on": "Daoy cells", "assay": "MTS cellular metabolic viability assay, Daoy", "assay_type": "cell-based"}, "[5]": {"target": "Src family tyrosine kinase YES1", "conditions": "read-out: YES1 IC50; radiolabeled ATP kinase assay; cited from earlier work"}, "Daoy cells [6]": {"tested_on": "Daoy cells", "conditions": "for concentration with appreciable cytotoxicity, not before 48 hours: from 48 h"}, "WEE1": {"tested_on": "WEE1", "conditions": "read-out: WEE1 IC50; radiolabeled ATP kinase assay; cited from earlier work"}, "ONS-76 cells": {"tested_on": "ONS-76 cells", "assay": "MTS cellular metabolic viability assay, ONS-76", "assay_type": "cell-based", "conditions": "ONS-76, 72 h"}, "recombinant WEE1": {"target": "recombinant WEE1 (Homo sapiens, UniProt P30291)", "sequence (P30291 whole entry)": "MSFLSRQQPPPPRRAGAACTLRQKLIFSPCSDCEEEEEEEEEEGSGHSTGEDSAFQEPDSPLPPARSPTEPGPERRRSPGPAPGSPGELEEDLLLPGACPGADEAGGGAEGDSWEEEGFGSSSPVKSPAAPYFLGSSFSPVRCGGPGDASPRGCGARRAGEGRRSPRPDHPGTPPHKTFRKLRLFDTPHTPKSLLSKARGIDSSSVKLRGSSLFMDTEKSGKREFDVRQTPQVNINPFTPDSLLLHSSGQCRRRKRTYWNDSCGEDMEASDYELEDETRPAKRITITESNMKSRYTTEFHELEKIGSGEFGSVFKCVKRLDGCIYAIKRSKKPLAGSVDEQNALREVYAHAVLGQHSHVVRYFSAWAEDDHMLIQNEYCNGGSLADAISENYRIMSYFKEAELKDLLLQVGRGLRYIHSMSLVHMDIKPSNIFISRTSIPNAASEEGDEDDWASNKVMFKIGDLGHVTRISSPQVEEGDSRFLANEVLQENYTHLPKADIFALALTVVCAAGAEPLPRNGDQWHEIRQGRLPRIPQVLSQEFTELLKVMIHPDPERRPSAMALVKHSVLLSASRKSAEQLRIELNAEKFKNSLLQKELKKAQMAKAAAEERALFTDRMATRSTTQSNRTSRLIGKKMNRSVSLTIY", "assay": "WEE1 recombinant kinase TR-FRET", "assay_type": "binding"}}, "note": "“Also recorded” adds a separate entry of the source."}
{"smiles": "C=CCn1c(=O)c2cnc(Nc3ccc(N4CCN(C)CC4)cc3)nc2n1-c1cccc(C(C)(C)O)n1", "note": "[AZD1775, 2-allyl-1-(6-(2-hydroxypropan-2-yl)pyridin-2-yl)-6-((4-(4-methylpiperazin-1-yl)phenyl)amino)-1,2-dihydro-3H-pyrazolo[3,4-d]pyrimidin-3-one, reference compound]", "values": [{"measurement": "IC50", "setting": "recombinant PLK1 kinase", "value": "77.6 ± 9.3", "unit": "nM"}, {"measurement": "dose-limiting toxicities", "setting": "[1]", "value": "supraventricular tachyarrhythmia and myelosuppression"}, {"measurement": "change in pCDK1(Tyr15) level vs DMSO control", "setting": "[2]", "value": "statistically significant decrease in pCDK1 levels"}, {"measurement": "pCDK1 ELISA dose-response", "setting": "[2]", "value": "comparable effects on pCDK1 levels"}, {"measurement": "inhibition of 8 other kinases", "setting": "8 other kinases", "value": "> 80", "unit": "%"}, {"measurement": "EC50", "setting": "[3]", "value": 220, "unit": "nM"}, {"measurement": "EC50 at 72 h", "setting": "in vitro; Daoy cells", "value": "188 ± 26", "unit": "nM"}, {"measurement": "EC50", "setting": "Daoy cells [4]; Homo sapiens, read-out: MTS EC50 used to set the concentration range, Daoy", "value": 150, "unit": "nM"}, {"measurement": "IC50", "setting": "[5]", "value": 14, "unit": "nM"}, {"measurement": "concentration with cytotoxic effects within 24 hours", "setting": "Daoy cells [6]; 24 h", "value": "> 600", "unit": "nM"}, {"measurement": "concentration with cytotoxic effects after 72 hours", "setting": "Daoy cells [6]; 72 h", "value": "> 75", "unit": "nM"}, {"measurement": "IC50", "setting": "WEE1", "value": 5, "unit": "nM"}]}
{"smiles": "C=CCn1c(=O)c2cnc(Nc3ccccc3)nc2n1-c1cccc(C(C)(C)O)n1", "note": "[Compound 24, 2-allyl-1-(6-(2-hydroxypropan-2-yl)pyridin-2-yl)-6-(phenylamino)-1,2-dihydro-3H-pyrazolo[3,4-d]pyrimidin-3-one]", "values": [{"measurement": "change in pCDK1(Tyr15) level vs DMSO control", "setting": "[2]", "value": "significant increases in pCDK1 levels"}]}
{"smiles": "C=CCn1c(=O)c2cnc(Nc3cccc(N(C)C)c3)nc2n1-c1cccc(C(C)(C)O)n1", "note": "[Compound 25, 2-allyl-6-((3-(dimethylamino)phenyl)amino)-1-(6-(2-hydroxypropan-2-yl)pyridin-2-yl)-1,2-dihydro-3H-pyrazolo[3,4-d]pyrimidin-3-one]", "values": [{"measurement": "change in pCDK1(Tyr15) level vs DMSO control", "setting": "[2]", "value": "significant increases in pCDK1 levels"}]}
{"smiles": "C=CCn1c(=O)c2cnc(Nc3ccc(CCN(C)C)cc3)nc2n1-c1cccc(C(C)(C)O)n1", "note": "[Compound 28, 2-allyl-6-((4-(2-(dimethylamino)ethyl)phenyl)amino)-1-(6-(2-hydroxypropan-2-yl)pyridin-2-yl)-1,2-dihydro-3H-pyrazolo[3,4-d]pyrimidin-3-one]", "values": [{"measurement": "IC50", "setting": "recombinant PLK1 kinase", "value": "270 ± 29", "unit": "nM"}, {"measurement": "change in pCDK1(Tyr15) level vs DMSO control", "setting": "[2]", "value": "statistically significant decrease in pCDK1 levels"}, {"measurement": "pCDK1 ELISA dose-response", "setting": "[2]", "value": "comparable effects on pCDK1 levels"}, {"measurement": "EC50 at 72 h", "setting": "in vitro", "value": "651 ± 16", "unit": "nM"}, {"measurement": "concentration with some cytotoxicity within 24 hours", "setting": "Daoy cells [6]; 24 h", "value": 1200, "unit": "nM"}]}
{"smiles": "C=CCn1c(=O)c2cnc(Nc3ccc(OCCN(C)C)cc3)nc2n1-c1cccc(C(C)(C)O)n1", "note": "[Compound 29, 2-allyl-6-((4-(2-(dimethylamino)ethoxy)phenyl)amino)-1-(6-(2-hydroxypropan-2-yl)pyridin-2-yl)-1,2-dihydro-3H-pyrazolo[3,4-d]pyrimidin-3-one]", "values": [{"measurement": "IC50", "setting": "recombinant PLK1 kinase", "value": "161 ± 10", "unit": "nM"}, {"measurement": "change in pCDK1(Tyr15) level vs DMSO control", "setting": "[2]", "value": "statistically significant decrease in pCDK1 levels"}, {"measurement": "pCDK1 ELISA dose-response", "setting": "[2]", "value": "comparable effects on pCDK1 levels"}, {"measurement": "MTS % effect (activity) at 600 nM, Daoy", "setting": "Daoy cells [4]; 72 h, 600 nM", "value": 81, "unit": "%"}, {"measurement": "CellTox Green dose-response / EC50 determination", "setting": "Daoy cells [6]; 72 h, up to 2400 nM", "value": "Sigmoidal dose-response curves were not obtained; also recorded: did not display sufficient cytotoxicity for EC50 determination"}, {"measurement": "concentration with appreciable cytotoxicity, not before 48 hours", "setting": "Daoy cells [6]", "value": "> 300", "unit": "nM"}]}
{"smiles": "C=CCn1c(=O)c2cnc(Nc3ccc(N4CCN(C)CC4)cc3)nc2n1-c1cccc(C(C)(C)O)c1", "note": "[Compound 31, 2-allyl-1-(3-(2-hydroxypropan-2-yl)phenyl)-6-((4-(4-methylpiperazin-1-yl)phenyl)amino)-1,2-dihydro-3H-pyrazolo[3,4-d]pyrimidin-3-one]", "values": [{"measurement": "IC50", "setting": "recombinant PLK1 kinase", "value": "394 ± 37", "unit": "nM"}, {"measurement": "change in pCDK1(Tyr15) level vs DMSO control", "setting": "[2]", "value": "did not cause a significant reduction in pCDK1 levels"}, {"measurement": "MTS % effect at 1.16 μM, ONS-76", "setting": "ONS-76 cells", "value": 57, "unit": "%"}, {"measurement": "concentration with appreciable cytotoxicity, not before 48 hours", "setting": "Daoy cells [6]", "value": "> 300", "unit": "nM"}]}
{"smiles": "C=C(C)c1cccc(-n2[nH]c(=O)c3cnc(Nc4ccc(N5CCN(C)CC5)cc4)nc32)n1", "note": "[Compound 34, 6-((4-(4-methylpiperazin-1-yl)phenyl)amino)-1-(6-(prop-1-en-2-yl)pyridin-2-yl)-1,2-dihydro-3H-pyrazolo[3,4-d]pyrimidin-3-one]", "values": [{"measurement": "IC50", "setting": "recombinant WEE1", "value": "190 ± 12", "unit": "nM"}]}
